Source: US8592431B2, “Fused ring compound and use thereof” (Takeda Pharmaceutical Company Limited, priority 2009, dated 2013)

Key:
[1] = system: Male SHRs; assay: Antihypertensive effect: mean blood pressure in SHRs after oral administration; assay type: in vivo, rat; conditions: SHR, during 24 hours after administration
Method: Male SHRs (28-40 weeks old, Japan SLC, Inc., Japan) were anesthetized with sodium pentobarbital (50 mg/kg, i.p.). The left femoral artery was cannulated with a polyethylene catheter filled with saline comprising heparin (200 U/mL). The catheter was exteriorized at the back of the neck and each SHR was individually housed in a cage and left two or four days to recover. The mean blood pressure (MBP) was obtained from the systemic blood pressure which was monitored from the femoral artery using a pressure transducer connected to a polygraph system (Nihon Kohden Corporation). The heart rate was measured from the blood pressure pulse intervals. The rats which had MBP over 150 mmHg were used for the experiment. When the blood pressure had stabilized, vehicle (0.5 w/v % methylcellulose) or compounds were orally administered. All compounds were suspended in 0.5 w/v % methylcellulose and orally administered at a volume of 2 mL/kg. The MBP was measured during 24 hours after the administration.

[2] = system: Male Wistar fatty rats; assay: Plasma triglyceride and glucose lowering in Wistar fatty rats, oral, once a day for 2 weeks; assay type: in vivo, rat; conditions: versus vehicle group
Method: Male 25-31 weeks-old Wistar fatty rats (Takeda Pharmaceutical Company) were divided to each group with equalization of plasma levels of triglyceride, glucose and body weight in fed condition. The groups of rats were treated with vehicle (0.5 w/v % methylcellulose) or compounds. All compounds were suspended in 0.5 w/v % methylcellulose and orally administered at a volume of 2 mL/kg, once a day for 2 weeks. The next day of the final administration, blood was collected from the tail vein to measure plasma parameters. Heparin was used as an anticoagulant. Plasma levels of triglyceride and glucose were measured enzymatically using Hitachi Autoanalyser 9000. The inhibition rates from vehicle treatment group were calculated for each compound after the treatment for 2 weeks.

[3] = molecular target: human AT1 receptor (Homo sapiens (Human), UniProt P30556); assay: AT1 receptor antagonistic activity: [125I]-angiotensin II binding assay with AT1 membrane; conditions: 22.5 pM [125I]-angiotensin II, human AT1 receptor-expressing CHO-K1 membrane, 1 hr room temperature
Method: Evaluation of AT1 Receptor Antagonistic Activity
(1) Preparation of Human AT1 Receptor-Expressing CHO-K1 Cellular Membrane Fraction
CHO-K1 cell (RIKEN, Japan) capable of stable expression of human AT1 receptor was cultured, recovered, suspended in homogenize buffer (10 mM NaHCO3 (pH 7.4), 5 mM EDTA, 1× Complete EDTA free) [manufactured by Roche, Switzerland], and homogenized. The homogenate was centrifuged at low-speed (900×g, 10 min, 4° C.), and the supernatant was recovered and ultracentrifuged (90,000×g, 1 hr, 4° C.). The supernatant was discarded, and the pellets were resuspended in suspension buffer (50 mM Tris (pH 7.4), 1 mM EDTA, 1× Complete EDTA free).
(2) Evaluation of AT1 Receptor Antagonistic Activity
(9 μg) in the presence of AT1 membrane and test compound in 100 μL (total reaction volume) of reaction buffer (50 mM Tris (pH 7.4), 10 mM MgCl2 supplemented or not supplemented with 0.3 mg/mL fatty acid-free bovine serum albumin [manufactured by Wako Pure Chemical Industries, Ltd., Japan]). The reaction mixture was incubated in 96 well polypropylene plate for 1 hr at room temperature, and the reaction was quenched by rapid filtration (96 well cell harvester) through a GF/C filter treated with wash buffer (50 mM Tris (pH 7.4)). Subsequently, the filter was washed 5 times with 0.3 mL of ice-cooled wash buffer. […] Total binding was measured in the presence of 1% DMSO and nonspecific binding was measured in the presence of 1 μM Candesartan.

[4] = 10 mg/kg once a day for 2 weeks
[5] = 30 mg/kg once a day for 2 weeks

Sequence of human AT1 receptor (P30556 whole entry): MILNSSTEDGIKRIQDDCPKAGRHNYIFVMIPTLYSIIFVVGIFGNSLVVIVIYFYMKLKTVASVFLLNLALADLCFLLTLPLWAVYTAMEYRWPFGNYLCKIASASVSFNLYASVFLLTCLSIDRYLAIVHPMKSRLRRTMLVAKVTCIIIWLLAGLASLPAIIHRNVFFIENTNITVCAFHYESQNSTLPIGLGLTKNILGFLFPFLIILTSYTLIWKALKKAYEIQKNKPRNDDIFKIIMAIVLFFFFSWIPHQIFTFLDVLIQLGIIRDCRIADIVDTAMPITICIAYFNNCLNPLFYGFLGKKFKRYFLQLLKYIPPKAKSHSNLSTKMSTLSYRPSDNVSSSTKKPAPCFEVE

Compound	Maximum MBP reduction (mmHg) ([1]; dose 3 mg/kg)	Inhibition rate of plasma glucose (%) ([2]; 3 mg/kg once a day for 2 weeks)	Inhibition rate of plasma triglyceride (%) ([2]; 3 mg/kg once a day for 2 weeks)	Inhibition rate of plasma glucose (%) [2, 4]	Inhibition rate of plasma triglyceride (%) [2, 4]	Maximum MBP reduction (mmHg) ([1]; dose 30 mg/kg)	Inhibition rate of plasma glucose (%) [2, 5]	Inhibition rate of plasma triglyceride (%) [2, 5]	Maximum MBP reduction (mmHg) ([1]; dose 10 mg/kg)	IC50 [3]
CCCc1c(Cc2ccc(-c3ccccc3-c3noc(=O)[nH]3)cc2)c(=O)n([C@H]2CC[C@H](OCC(C)(C)O)CC2)c2ccnn12.[K] [Example 415, 4-[trans-4-(2-hydroxy-2-methylpropoxy)cyclohexyl]-6-{[2′-(5-oxo-4,5-dihydro-1,2,4-oxadiazol-3-yl)biphenyl-4-yl]methyl}-7-propylpyrazolo[1,5-a]pyrimidin-5(4H)-one potassium salt]	63 mmHg	25.1%	38.1%	54.3%	57.7%	–	–	–	–	–
CCCc1c(Cc2ccc(-c3ccccc3-c3noc(=O)[nH]3)cc2F)c(=O)n(C2CCC(OC(C)C(C)(C)O)CC2)c2ncnn12 (single isomer, unassigned; (+)) [Example 458, hydrate]	–	−0.2%	33.5%	6.9%	39.0%	70 mmHg	43.3%	59.2%	–	–
CCCc1c(Cc2ccc(-c3ccccc3-c3noc(=O)[nH]3)cc2)c(=O)n([C@H]2CC[C@H](OCC(C)(C)O)CC2)c2ccnn12 [Example 413, 4-[trans-4-(2-Hydroxy-2-methylpropoxy)cyclohexyl]-6-{[2′-(5-oxo-4,5-dihydro-1,2,4-oxadiazol-3-yl)biphenyl-4-yl]methyl}-7-propylpyrazolo[1,5-a]pyrimidin-5(4H)-one]	–	6.5%	12.0%	19.1%	21.5%	–	53.3%	46.0%	79 mmHg	1.6 nM
